Measured values as given in PubChem BioAssay (NCI).
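Values below derive from 48-hour exposures of cells grown in 96-well plates, with endpoints linearly interpolated between the two concentrations bracketing the appropriate inhibition level. TGI: total growth inhibition.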

What was measured:
Experiment in all cases: growth of human tumour cells (NCI), 48 h
A498 renal = system: A498 renal
A549 NSCLC = system: A549 NSCLC
ACHN renal = system: ACHN renal
BT-549 breast = system: BT-549 breast
CCRF-CEM leukemia = system: CCRF-CEM leukemia
COLO 205 colon = system: COLO 205 colon
DU-145 prostate = system: DU-145 prostate
EKVX NSCLC = system: EKVX NSCLC
HCC-2998 colon = system: HCC-2998 colon
HCT-116 colon = system: HCT-116 colon
HCT-15 colon = system: HCT-15 colon
HL-60(TB) leukemia = system: HL-60(TB) leukemia
HOP-62 NSCLC = system: HOP-62 NSCLC
HOP-92 NSCLC = system: HOP-92 NSCLC
HS 578T breast = system: HS 578T breast
HT29 colon = system: HT29 colon
IGROV1 ovarian = system: IGROV1 ovarian
K-562 leukemia = system: K-562 leukemia
KM12 colon = system: KM12 colon
LOX IMVI melanoma = system: LOX IMVI melanoma
M14 melanoma = system: M14 melanoma
MALME-3M melanoma = system: MALME-3M melanoma
MCF7 breast = system: MCF7 breast
MDA-MB-231 breast = system: MDA-MB-231 breast
MDA-MB-435 = system: MDA-MB-435
MDA-N = system: MDA-N
MOLT-4 leukemia = system: MOLT-4 leukemia
NCI-H23 lung = system: NCI-H23 lung
NCI-H460 lung = system: NCI-H460 lung
NCI-H522 lung = system: NCI-H522 lung
NCI/ADR-RES ovarian = system: NCI/ADR-RES ovarian
OVCAR-3 ovarian = system: OVCAR-3 ovarian
OVCAR-4 ovarian = system: OVCAR-4 ovarian
OVCAR-5 ovarian = system: OVCAR-5 ovarian
OVCAR-8 ovarian = system: OVCAR-8 ovarian
PC-3 prostate = system: PC-3 prostate
RPMI-8226 leukemia = system: RPMI-8226 leukemia
RXF 393 renal = system: RXF 393 renal
SF-268 CNS = system: SF-268 CNS
SF-295 CNS = system: SF-295 CNS
SF-539 CNS = system: SF-539 CNS
SK-MEL-2 melanoma = system: SK-MEL-2 melanoma
SK-MEL-28 melanoma = system: SK-MEL-28 melanoma
SK-MEL-5 melanoma = system: SK-MEL-5 melanoma
SK-OV-3 ovarian = system: SK-OV-3 ovarian
SN12C renal = system: SN12C renal
SNB-19 CNS = system: SNB-19 CNS
SNB-75 CNS = system: SNB-75 CNS
SR leukemia = system: SR leukemia
SW-620 colon = system: SW-620 colon
T-47D breast = system: T-47D breast
TK-10 renal = system: TK-10 renal
U251 CNS = system: U251 CNS
UACC-257 melanoma = system: UACC-257 melanoma
UACC-62 melanoma = system: UACC-62 melanoma
UO-31 renal = system: UO-31 renal
786-0 renal = system: 786-0 renal
CAKI-1 renal = system: CAKI-1 renal
NCI-H226 lung = system: NCI-H226 lung

O=C1CCc2cc3c(cc21)CC1(Cc2cc4c(cc2C1)CCCC4)C3
TGI (A498 renal): > 100 µM | TGI (A549 NSCLC): > 100 µM | TGI (ACHN renal): > 100 µM | TGI (BT-549 breast): > 100 µM | TGI (CCRF-CEM leukemia): > 100 µM | TGI (COLO 205 colon): > 100 µM | TGI (DU-145 prostate): > 100 µM | TGI (EKVX NSCLC): > 100 µM | TGI (HCC-2998 colon): > 100 µM | TGI (HCT-116 colon): > 100 µM | TGI (HCT-15 colon): > 100 µM | TGI (HL-60(TB) leukemia): > 100 µM | TGI (HOP-62 NSCLC): > 100 µM | TGI (HOP-92 NSCLC): 11.4 µM | TGI (HS 578T breast): 90.2 µM | TGI (HT29 colon): > 100 µM | TGI (IGROV1 ovarian): > 100 µM | TGI (K-562 leukemia): > 100 µM | TGI (KM12 colon): > 100 µM | TGI (LOX IMVI melanoma): > 100 µM | TGI (M14 melanoma): > 100 µM | TGI (MALME-3M melanoma): > 100 µM | TGI (MCF7 breast): > 100 µM | TGI (MDA-MB-231 breast): > 100 µM | TGI (MDA-MB-435): 51 µM | TGI (MDA-N): 39.4 µM | TGI (MOLT-4 leukemia): > 100 µM | TGI (NCI-H23 lung): > 100 µM | TGI (NCI-H460 lung): > 100 µM | TGI (NCI-H522 lung): > 100 µM | TGI (NCI/ADR-RES ovarian): > 100 µM | TGI (OVCAR-3 ovarian): > 100 µM | TGI (OVCAR-4 ovarian): > 100 µM | TGI (OVCAR-5 ovarian): > 100 µM | TGI (OVCAR-8 ovarian): > 100 µM | TGI (PC-3 prostate): > 100 µM | TGI (RPMI-8226 leukemia): > 100 µM | TGI (RXF 393 renal): > 100 µM | TGI (SF-268 CNS): > 100 µM | TGI (SF-295 CNS): > 100 µM | TGI (SF-539 CNS): > 100 µM | TGI (SK-MEL-2 melanoma): > 100 µM | TGI (SK-MEL-28 melanoma): > 100 µM | TGI (SK-MEL-5 melanoma): > 100 µM | TGI (SK-OV-3 ovarian): > 100 µM | TGI (SN12C renal): > 100 µM | TGI (SNB-19 CNS): > 100 µM | TGI (SNB-75 CNS): 75.1 µM | TGI (SR leukemia): 47.7 µM | TGI (SW-620 colon): > 100 µM | TGI (T-47D breast): > 100 µM | TGI (TK-10 renal): > 100 µM | TGI (U251 CNS): > 100 µM | TGI (UACC-257 melanoma): > 100 µM | TGI (UACC-62 melanoma): > 100 µM | TGI (UO-31 renal): > 100 µM

NS(=O)(=O)c1nnc(/N=C(/CCC(=O)O)C(=O)O)s1
TGI (786-0 renal): > 100 µM | TGI (A498 renal): > 100 µM | TGI (A549 NSCLC): > 100 µM | TGI (ACHN renal): > 100 µM | TGI (BT-549 breast): > 100 µM | TGI (CAKI-1 renal): > 100 µM | TGI (CCRF-CEM leukemia): > 100 µM | TGI (COLO 205 colon): > 100 µM | TGI (DU-145 prostate): > 100 µM | TGI (EKVX NSCLC): > 100 µM | TGI (HCC-2998 colon): > 100 µM | TGI (HCT-116 colon): > 100 µM | TGI (HCT-15 colon): > 100 µM | TGI (HL-60(TB) leukemia): > 100 µM | TGI (HOP-62 NSCLC): > 100 µM | TGI (HOP-92 NSCLC): > 100 µM | TGI (HS 578T breast): > 100 µM | TGI (HT29 colon): > 100 µM | TGI (IGROV1 ovarian): > 100 µM | TGI (K-562 leukemia): > 100 µM | TGI (KM12 colon): > 100 µM | TGI (LOX IMVI melanoma): > 100 µM | TGI (M14 melanoma): > 100 µM | TGI (MALME-3M melanoma): > 100 µM | TGI (MCF7 breast): > 100 µM | TGI (MDA-MB-231 breast): > 100 µM | TGI (MDA-MB-435): > 100 µM | TGI (MDA-N): > 100 µM | TGI (MOLT-4 leukemia): > 100 µM | TGI (NCI-H226 lung): > 100 µM | TGI (NCI-H23 lung): > 100 µM | TGI (NCI-H460 lung): > 100 µM | TGI (NCI-H522 lung): > 100 µM | TGI (NCI/ADR-RES ovarian): > 100 µM | TGI (OVCAR-3 ovarian): > 100 µM | TGI (OVCAR-4 ovarian): > 100 µM | TGI (OVCAR-5 ovarian): > 100 µM | TGI (OVCAR-8 ovarian): > 100 µM | TGI (PC-3 prostate): > 100 µM | TGI (RPMI-8226 leukemia): > 100 µM | TGI (SF-295 CNS): > 100 µM | TGI (SF-539 CNS): > 100 µM | TGI (SK-MEL-2 melanoma): > 100 µM | TGI (SK-MEL-28 melanoma): > 100 µM | TGI (SK-MEL-5 melanoma): > 100 µM | TGI (SK-OV-3 ovarian): > 100 µM | TGI (SN12C renal): > 100 µM | TGI (SNB-19 CNS): > 100 µM | TGI (SNB-75 CNS): > 100 µM | TGI (SR leukemia): > 100 µM | TGI (SW-620 colon): > 100 µM | TGI (T-47D breast): > 100 µM | TGI (TK-10 renal): > 100 µM | TGI (U251 CNS): > 100 µM | TGI (UACC-257 melanoma): > 100 µM | TGI (UACC-62 melanoma): > 100 µM | TGI (UO-31 renal): > 100 µM
